Consider one sequence from paper PMC12677653, “Inhibition of Tumor Lipogenesis and Growth by Peptide‐Based Targeting of SREBP Activation” (Advanced Science, 2025).

One data set deals with SREBP1 activity. The data set is described as follows: SRE luciferase assay. The data set is classed as cell-based, human. Conditions: Huh7 cells, peptide 15 µM 1 h, IGF1 100 ng/mL 14 h, normalized to β-galactosidase, n = 3.
The subject of a further data set is Hep3B cells. The data set is described as follows: Cell proliferation, Hep3B. The data set is classed as cell-based, human. Particulars: peptide 25 μM 1 h, IGF1 100 ng/mL 72 h, automated cell counting, n = 3. The method, then: Cells were seeded in 96‐well plates at a density of 5000 cells per well in 100 µL complete growth medium. Following a 24‐hour incubation period (37 °C, 5% CO2) to permit cell adherence, the culture medium was replaced with fresh low serum contained complete medium containing either Insig1/2 loop1 peptide (0–100 µM concentration range) or PBS. Cells were maintained under these conditions for 72 hours. After treatment, the culture medium was carefully aspirated, and cells were washed twice with 200 µL phosphate‐buffered saline (PBS, pH 7.4). Fixed was performed using 4% paraformaldehyde (100 µL/well) for 15 min at room temperature, followed by three PBS washes (200 µL/well) to remove residual fixative. 0.1% (w/v) crystal violet staining solution was prepared by dissolving crystal violet powder in 10% ethanol, followed by filtration through a 0.22 µm membrane. Each well received 80 µL of staining solution and was incubated for 15 min at room temperature, protected from light. […] Plates were agitated at 200 rpm for 10 min to ensure complete dissolution before measuring absorbance at 582 nm using a microplate reader. […]
g) Cell proliferation was assessed by automated cell counting after 72 h of IGF1 stimulation (100 ng ml⁻¹) in Hep3B cells pretreated with Insig1/2 loop 1 peptide (25 μM) for 1 h.

Data set [1] concerns lipid accumulation in tumor tissues. Nature of the data set: Oil Red O staining of tumor tissues. Conditions: cryosections of Huh7 tumors, n = 4; peptide given as LNP 10 mg/kg iv; lenvatinib mesylate 2 mg/kg oral. The data set is classed as in vivo, BALB/c athymic nude mice. The method, then:
Representative micrographs are shown (scale bar: 20 µm). b,c) Cryosections of mouse tumor tissues were prepared for histological analysis. (b) Lipid accumulation was assessed by Oil Red O staining. Representative micrographs are shown (scale bar: 20 µm). (c) Apoptotic cells were detected by TUNEL assay. Representative micrographs are shown (scale bar: 20 µm). d,e) Quantitative analysis of (d) apoptotic areas (TUNEL‐positive regions) and (e) lipid droplet counts (Oil Red O‐positive particles) was performed. Data represent the mean ± SD (n = 4). Statistical significance was determined by one‐way analysis of variance (ANOVA). ** p < 0.01, **** p < 0.0001, ns, no significance.
Cryosections 6–8 µm in thickness were air‐dried and fixed with formaldehyde for 5–10 min. Then, the slides were placed in absolute propylene glycol for 2–5 min and stained with 0.5% Oil red O dye. After staining, the slides were rinsed, counterstained with Mayer's hematoxylin for 1 min, and mounted in glycerin.

Data set [2] in a line: Safety in mice: H&E staining of organs and blood examination. Format: in vivo. Particulars: given iv as LNPs, 10 mg/kg. The method, then: c-k) The LNP@Insig1/2 loop 1 peptide or PBS (control) was administered intravenously to 6-week-old nude mice (n = 4 per group) at a dose of 10 mg kg^-1 body weight. (c)Mice heart, liver, spleen, lung and kidney were harvested for H&E staining (scale bar: 50 μm). Mouse blood was collected for (d) ALT, (e) AST, (f) ALB, (g) ALP, (h) BUN, (i) UA, (j) CR, (k) CK analysis. ALT, alanine aminotransferase; AST, aspartate transaminase; ALB, albumin; ALP, alkaline phosphatase; BUN, blood urea nitrogen; UA, uric acid; CR, creatinine; CK, creatine kinase. Data are expressed as mean ± SD. Comparisons between the two groups were performed using Student's t-test.

With “RKKRRQRRRLYPCIDSHLGEPHKFKRE [Insig1/2 loop 1 peptide]”, in the data set with SREBP1 activity, the “SREBP1 activity (SRE luciferase)” value was “markedly inhibited”. The “IGF1-induced increase in proliferation” value in the data set on Hep3B cells is “inhibited”. Further, the “lipid accumulation in tumor tissues (Oil Red O)” value in data set [1] is listed as “reduced lipid accumulation in tumor tissues”. Moreover, in data set [2], the “toxicity (overall conclusion)” value is recorded as “limited toxicity”.
